# Legend:
# [1] = biological target: human MLKL (full length) (Homo sapiens (Human), UniProt Q8NB16); assay: KINOMEscan binding assay, human MLKL (full length); conditions: equilibrium dissociation constant
# Method in brief: (§1)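 Binding constants were derived by fitting qPCR-quantified bead-retained kinase against compound concentration to the Hill equation, slope set at −1. Compound series were 3-fold over 11 points with 1% DMSO; most top concentrations were 30,000 nM. Kinases were T7-phage-tagged or HEK-293-produced with DNA tags.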
# [2] = biological target: human RIPK1 (Homo sapiens (Human), UniProt Q13546); assay: KINOMEscan binding assay, human RIPK1; conditions: equilibrium dissociation constant
# human RIPK1, sequence (Q13546 whole entry): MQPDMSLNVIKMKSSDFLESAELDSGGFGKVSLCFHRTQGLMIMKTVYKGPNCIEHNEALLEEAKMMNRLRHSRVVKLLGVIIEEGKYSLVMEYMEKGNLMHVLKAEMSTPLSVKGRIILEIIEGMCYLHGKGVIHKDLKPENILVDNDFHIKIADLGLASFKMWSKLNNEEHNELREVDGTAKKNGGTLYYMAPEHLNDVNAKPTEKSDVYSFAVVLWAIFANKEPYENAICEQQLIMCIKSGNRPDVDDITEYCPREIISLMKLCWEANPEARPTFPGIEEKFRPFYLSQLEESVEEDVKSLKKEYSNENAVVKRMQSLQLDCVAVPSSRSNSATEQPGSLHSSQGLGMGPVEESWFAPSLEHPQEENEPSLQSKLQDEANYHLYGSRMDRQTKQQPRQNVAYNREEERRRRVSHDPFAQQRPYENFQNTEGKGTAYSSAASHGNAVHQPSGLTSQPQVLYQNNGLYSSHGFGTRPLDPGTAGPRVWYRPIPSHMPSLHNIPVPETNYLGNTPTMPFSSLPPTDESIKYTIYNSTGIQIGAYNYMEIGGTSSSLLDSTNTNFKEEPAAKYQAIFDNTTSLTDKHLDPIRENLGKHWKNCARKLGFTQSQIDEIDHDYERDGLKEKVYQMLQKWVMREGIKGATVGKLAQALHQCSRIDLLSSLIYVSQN
# Method in brief: as §1
# [3] = test system: Immortalised Mouse Dermal Fibroblasts (MDFs); assay: Inhibition of TSI induced necroptosis in mouse dermal fibroblasts (CellTitre-Glo); conditions: Mus musculus, Fibroblast, 3 h, MDF cells, TSI cocktail (TNF, Smac mimetic, IDN-6556), read-out: Inhibition of TSI-induced necroptosis (IC50 cell-based assay) in MDF
# Experimental: Cellular Assay: Screening Compounds for Inhibition of TSI Induced Necroptosis in, 384 well plate format. • Cell Line ID: Immortalised Mouse Dermal Fibroblasts (MDFs). • Cell Concentration (cells/well): Final cell density is 2200 cells per well. • Cell growth medium: DMEM medium+7.4% Fetal Bovine Serum (FBS). Cells are cultured in Corning 150 cm^2 tissue culture flasks with vented caps at 37° C./10% CO2. • Incubation: Plates were incubated for 30 minutes following addition of compounds and then 3 hours incubation with death stimuli (TSI cocktail) at 37° C./10% CO2 in a humidified incubator. • Compound concentration: 36 μM starting concentration, 1:3 dilution, 10 point • DMSO final concentration (% v/v): 0.3%. Compounds in TSI Cocktail (T: TNF; S: Smac Mimetic; I: IDN-6556) and their Final Concentrations: • rhTNF (100 ng/ml) • Compound A (500 nM)—Smac mimetic, Tetralogic and SYNthesis med chem • IDN-6556 (10 μM)—Selleckchem (S7775)
# The cellular assay was carried out according to the following steps: • 1. Each well was prepared by sequential addition of: • a. 40 μL of cell suspension (5.5×10^4 cells/mL) was added to each well to provide a final cell concentration of 2,200 cells per well. • b. After 24 hours, DMSO (control; columns 1-2 and 23-24) or compound in DMSO—addition was performed using acoustic transfer of nL volumes of stock compound to give final test concentrations of 36, 12, 4, 1.3, 0.44, 0.148, 0.049, 0.016, 0.005 and 0.002 μM. All wells were backfilled with DMSO to a final total volume in the well of 100 nL. • c. Following compound/DMSO addition in step (b), Plates were incubated for 30 minutes at 37° C./10% CO2 in a humidified incubator and then 10 μL of 5×TSI cocktail (except to positive controls; columns 2 and 24) was added to each well. • 2. After 3 hours, plate was removed from the 37° C. incubator and equilibrated to room temperature for 15 minutes. • 3. 15 μL of room temperature CellTitre-Glo2™ (Promega™) was added to each well. • 4. Shook plates for 2 minutes (˜600 rpm) and incubated at room temperature for 15 minutes to allow signal to stabilise. • 5. Read luminescence readout on a plate reader.
# Percent viability was calculated for each compound according to equation (2): […]
# 10 point titration curves were fitted with the 4 parameter logistic nonlinear regression model and the IC50 reported reflect the inflection point of the curve for curve fitting.
# • Assay involving the TSI cocktail (T: TNF; S: Smac mimetic; I: IDN-6556): TSI treatment ensures that cells specifically undergo necroptotic cell death. TNF activates the TNF receptor, Smac mimetic directs the signal away from proinflammatory signaling and toward the RIPK1/RIPK3-mediated cell death pathways, and IDN-6556 (Caspase inhibitor) ensures that the apoptotic response is blocked leaving only the programmed necrosis response. The compounds' activity (solution in DMSO) tested in this TSI-induced assay was evaluated by determining the number of viable cells in culture by measuring the amount of ATP present as measured by CelltiterGlo.
# [4] = biological target: human RIPK3 (Homo sapiens (Human), UniProt Q9Y572); assay: KINOMEscan binding assay, human RIPK3; conditions: equilibrium dissociation constant
# human RIPK3, sequence (Q9Y572 whole entry): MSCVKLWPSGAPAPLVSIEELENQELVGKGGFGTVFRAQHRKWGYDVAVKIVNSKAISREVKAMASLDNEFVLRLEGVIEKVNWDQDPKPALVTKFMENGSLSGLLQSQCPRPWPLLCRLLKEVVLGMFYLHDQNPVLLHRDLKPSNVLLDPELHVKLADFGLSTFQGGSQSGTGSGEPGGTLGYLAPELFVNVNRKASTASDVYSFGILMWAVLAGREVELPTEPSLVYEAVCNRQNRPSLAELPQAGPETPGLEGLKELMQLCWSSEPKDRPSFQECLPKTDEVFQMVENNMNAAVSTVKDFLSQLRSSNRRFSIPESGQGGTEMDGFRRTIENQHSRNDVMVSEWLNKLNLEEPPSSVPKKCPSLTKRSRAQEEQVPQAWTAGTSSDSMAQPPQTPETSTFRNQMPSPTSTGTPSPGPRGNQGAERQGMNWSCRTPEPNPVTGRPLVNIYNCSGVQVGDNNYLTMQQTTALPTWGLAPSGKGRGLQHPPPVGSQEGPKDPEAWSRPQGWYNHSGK
# Method in brief: as §1
# human MLKL (full length), sequence (Q8NB16 whole entry): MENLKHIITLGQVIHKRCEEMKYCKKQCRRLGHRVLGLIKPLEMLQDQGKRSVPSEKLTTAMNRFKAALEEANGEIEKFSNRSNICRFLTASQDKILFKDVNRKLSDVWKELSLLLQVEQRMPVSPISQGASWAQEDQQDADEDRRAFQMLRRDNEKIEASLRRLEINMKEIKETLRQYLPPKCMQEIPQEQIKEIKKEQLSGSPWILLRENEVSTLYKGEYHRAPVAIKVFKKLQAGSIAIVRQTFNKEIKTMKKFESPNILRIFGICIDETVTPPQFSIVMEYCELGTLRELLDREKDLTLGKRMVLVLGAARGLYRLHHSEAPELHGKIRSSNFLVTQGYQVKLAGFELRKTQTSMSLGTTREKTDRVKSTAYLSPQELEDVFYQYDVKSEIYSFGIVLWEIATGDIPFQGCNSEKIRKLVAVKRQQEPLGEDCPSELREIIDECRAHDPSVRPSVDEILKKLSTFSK
Kd [1] [nM],Kd [2] [nM],Kd [4] [nM],SMILES,IC50 [3] [nM]
1 to 100,> 10000,> 10000,"C[C@H](Oc1cc(-c2nn(C)c3c(-c4cnn(C5CCN(C)C6(CC6)C5)c4)cnc(N)c23)ccc1NS(=O)(=O)C(F)F)c1ccc(F)cc1 (single isomer, unassigned) [Compound 170, N-(4-(4-amino-1-methyl-7-(1-((S*)-4-methyl-4-azaspiro[2.5]octan-7-yl)-1H-pyrazol-4-yl)-1H-pyrazolo[4,3-c]pyridin-3-yl)-2-((S)-1-(4-fluorophenyl)ethoxy)phenyl)-1,1-difluoromethanesulfonamide]",< 100
< 1,> 10000,> 10000,"C[C@H](Oc1cc(-c2nn(C)c3c(-c4cnn(C5CCOCC5)c4)cnc(N)c23)ccc1NS(=O)(=O)C(F)F)c1ccc(F)cc1 [Compound 19, (S)-N-(4-(4-amino-1-methyl-7-(1-(tetrahydro-2H-pyran-4-yl)-1H-pyrazol-4-yl)-1H-pyrazolo[4,3-c]pyridin-3-yl)-2-(1-(4-fluorophenyl)ethoxy)phenyl)-1,1-difluoromethanesulfonamide]",100 to 1000
1 to 100,> 10000,> 10000,"C[C@H](Oc1cc(-c2nn(C)c3c(-c4cnn(C5CCCC5)c4)cnc(N)c23)ccc1NS(=O)(=O)C(F)F)c1ccc(F)cc1 [Compound 30, (S)-N-(4-(4-amino-7-(1-cyclopentyl-1H-pyrazol-4-yl)-1-methyl-1H-pyrazolo[4,3-c]pyridin-3-yl)-2-(1-(4-fluorophenyl)ethoxy)phenyl)-1,1-difluoromethanesulfonamide]",1000 to 10000
1 to 100,> 10000,> 10000,"C[C@H](Oc1cc(-c2nn(C)c3c(-c4cnn(C5CCN(C)CC5)c4)cnc(N)c23)ccc1NS(=O)(=O)C(F)F)c1ccc(F)cc1 [Compound 46, (S)-N-(4-(4-amino-1-methyl-7-(1-(1-methylpiperidin-4-yl)-1H-pyrazol-4-yl)-1H-pyrazolo[4,3-c]pyridin-3-yl)-2-(1-(4-fluorophenyl)ethoxy)phenyl)-1,1-difluoromethanesulfonamide]",100 to 1000

# Further lines, the molecule ahead of its results:
SMILES,Kd [1] [nM],Kd [2] [nM],Kd [4] [nM],IC50 [3] [nM]
"C[C@H](Oc1cc(-c2nn(C)c3c(-c4cnn(C5CCN(C)C(C)(C)C5)c4)cnc(N)c23)ccc1NS(=O)(=O)C(F)F)c1ccc(F)cc1 (single isomer, unassigned) [Compound 113]",< 1,> 10000,> 10000,100 to 1000
"C[C@H](Oc1cc(-c2nn(C)c3c(-c4cnn(C5CCN(C)C(C)(C)C5)c4)cnc(N)c23)ccc1NS(=O)(=O)C(F)F)c1ccc(F)cc1 (single isomer, unassigned) [Compound 154, N-(4-(4-amino-1-methyl-7-(1-((R*)-1,2,2-trimethylpiperidin-4-yl)-1H-pyrazol-4-yl)-1H-pyrazolo[4,3-c]pyridin-3-yl)-2-((S)-1-(4-fluorophenyl)ethoxy)phenyl)-1,1-difluoromethanesulfonamide]",< 1,> 10000,> 10000,< 100
"Cn1nc(-c2ccc(NS(=O)(=O)C(F)F)c(OCc3ccc(F)cc3)c2)c2c(N)ncc(-c3cnn(C4CCOCC4)c3)c21 [Compound 13, N-(4-(4-amino-1-methyl-7-(1-(tetrahydro-2H-pyran-4-yl)-1H-pyrazol-4-yl)-1H-pyrazolo[4,3-c]pyridin-3-yl)-2-((4-fluorobenzyl)oxy)phenyl)-1,1-difluoromethanesulfonamide]",< 1,> 10000,> 10000,1000 to 10000
"COCCn1cc(-c2cnc(N)c3c(-c4ccc(NS(=O)(=O)C(F)F)c(O[C@@H](C)c5ccc(F)cc5)c4)nn(C)c23)cn1 [Compound 29, (S)-N-(4-(4-amino-7-(1-(2-methoxyethyl)-1H-pyrazol-4-yl)-1-methyl-1H-pyrazolo[4,3-c]pyridin-3-yl)-2-(1-(4-fluorophenyl)ethoxy)phenyl)-1,1-difluoromethanesulfonamide]",< 1,> 10000,> 10000,1000 to 10000

# From patent US20250059188A1, “ARYLSULPHONAMIDE COMPOUNDS” (Anaxis Pharma Pty Ltd, priority 2021, published 2025)
